Literature values in patent US20240200062A1, “METHODS OF TREATING DUCHENNE MUSCULAR DYSTROPHY USING PEPTIDE-OLIGONUCLEOTIDE CONJUGATES” (PepGen Inc., priority 2021, published 2024).

Tested on: dystrophin
Settings: in vivo; cited from earlier work

## eteplirsen
  levels of dystrophin restoration: approximately 1 % of normal dystrophin levels
